This assay concerns cultured human mast cells (CHMC). Briefly: CHMC low cell density IgE activation: tryptase assay. In kind it is cell-based. Conditions: IgE activation. An outline of the steps:
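Tryptase release, fluorogenic substrate, 30 min RT. Prior anti-IgE stimulation of CHMC, 30 min, 37 °C, after 1 hr preincubation at 1000–1500 cells/well in MT; unstimulated wells received MT.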

Setting [1] is: Homo sapiens, Mast cell, low cell density CHMC, tryptase release, 8 pt, read-out: LD Tryptase, CHMC, IgE, 8 pt.
The mark [2] stands for this setting: low cell density CHMC, tryptase, 3 pt, read-out: LD Tryptase, CHMC, IgE, 3 pt.
Where [3] appears, read: low cell density CHMC, tryptase, 8 pt, read-out: LD Tryptase, CHMC, IgE, 8 pt.
The mark [4] stands for this setting: Homo sapiens, Mast cell, low cell density CHMC, tryptase, 3 pt, read-out: LD Tryptase, CHMC, IgE, 3 pt.
The mark [5] stands for this setting: Homo sapiens, Mast cell, low cell density, 3 pt, read-out: LD Tryptase, CHMC, IgE, 3 pt.
Setting [6] is: Homo sapiens, Mast cell, low cell density, 8 pt, read-out: LD Tryptase, CHMC, IgE, 8 pt.
[7] abbreviates: Homo sapiens, Mast cell, low cell density CHMC, tryptase release, 3 pt, read-out: LD Tryptase, CHMC, IgE, 3 pt.
The mark [8] stands for this setting: low cell density CHMC, tryptase readout, 8 pt, read-out: LD Tryptase, CHMC, IgE, 8 pt.
[9] abbreviates: low cell density CHMC, tryptase release, 3 pt, read-out: LD Tryptase, CHMC, IgE, 3 pt.
Where [10] appears, read: low cell density CHMC, tryptase release, 8 pt, read-out: LD Tryptase, CHMC, IgE, 8 pt.
Where [11] appears, read: Homo sapiens, Mast cell, low cell density CHMC, tryptase, 8 pt, read-out: LD Tryptase, CHMC, IgE, 8 pt.
Where [12] appears, read: low cell density, 8 pt, read-out: LD Tryptase, CHMC, IgE, 8 pt.

Consider 32 compounds from patent US20220073536A1 (Rigel Pharmaceuticals, Inc., priority 2003, published 2022).

Like-named read-outs stand apart in the source and are kept apart here.

Regarding `COc1cc(Nc2ncc(F)c(Nc3ccc4c(c3)NC(=O)C(C)S4)n2)cc(OC)c1OC` (stereo not shown) [Compound 272], the IC50 under setting [1] is less than 10 µM. Regarding “N4- (Aminocarbonylphenyl)-5-fluoro-N2- (4-[N-[methoxycarbonylmethylene]aminocarbonyl]phenyl)-2,4-pyrimidinediamine [Compound 1338]”, the IC50 by setting is: under setting [2], less than 10 µM; under setting [3], less than 10 µM. Take `COc1cc(Nc2ncc(F)c(Nc3ccc4c(c3)OC(F)(F)C(F)(F)O4)n2)cc(C(F)(F)F)c1` [Compound 361]: the IC50 under setting [2] was less than 10 µM.

In the case of `COc1ccc(Nc2nc(Nc3ccc4c(cnn4CC4CCCCC4)c3)ncc2F)cc1Cl` [Compound 718, N4-(3-Chloro-4-methoxyphenyl)-N2-[1-(cyclohexylmethyl)indazol-5-yl]-5-fluoro-2,4-pyrimidinediamine], the IC50 under setting [4] is less than 10 µM.

With `C[C@@H]1Oc2ccc(Nc3nc(Nc4ccc5c(c4)nc(CS(C)(=O)=O)n5C)ncc3F)cc2NC1=O` [Compound 968], the IC50 is less than 10 µM under setting [5] and less than 10 µM under setting [6]. Consider `COc1cc(Nc2nc(Nc3cc(C)cc(C)c3)ncc2F)cc(C(F)(F)F)c1` [Compound 331], for which the IC50 under setting [7] is less than 10 µM.

Turning to “N2-[3,5-Bis (hydroxymethylene)phenyl]-N4- (3,4-ethylenedioxyphenyl)-5-fluoro-2,4-pyrimidinediamine [Compound 342]”, the IC50 under setting [3] is less than 10 µM. Turning to `COC(=O)c1cc(Nc2ncc(F)c(Nc3c(C)noc3C)n2)cc(-c2ncco2)c1` [Compound 535], under setting [5], the IC50 is less than 10 µM. On to `COc1ccc(Nc2nc(Nc3ccc4nc(C)[nH]c4c3)ncc2F)nc1Cl` [Compound 884], for which the IC50 under setting [5] was less than 10 µM. Regarding `CC(=O)NCCCn1ncc2cc(Nc3ncc(F)c(Nc4ccc(Cl)c(Cl)c4)n3)ccc21` [Compound 820, N2-[1-[3-(N-Acetylamino)propyl]indazol-5-yl]-N4-(3,4-dichlorophenyl)-5-fluoro-2,4-pyrimidinediamine], under setting [1], the IC50 is less than 10 µM. Turning to `Cc1c(O)cccc1Nc1ncc(F)c(Nc2ccc3c(n2)NC(=O)CO3)n1` [Compound 1063, 5-Fluoro-N2-(3-hydroxy-2-methylphenyl)-N4-(3-oxo-2H,4H-5-pyrid[1,4]oxazin-6-yl)-2,4-pyrimidinediamine], the IC50 under setting [8] is less than 10 µM. Take `COC(=O)CNC(=O)c1ccc(Nc2ncc(F)c(Nc3ccc(OCc4nc(C)no4)cc3)n2)cc1` [Compound 1342, 5-Fluoro-N2-(4-[N-[methoxycarbonylmethylene]aminocarbonyl]phenyl)-N4-(4-[3-methyl-1,2,4-oxadiazol-5-yl]methyleneoxyphenyl)-2,4-pyrimidinediamine]: the IC50 runs as follows: under setting [2], less than 10 µM; under setting [3], less than 10 µM.

Take `COc1ccc(Nc2ncc(F)c(Nc3ccc4c(c3)NC(=O)C(C)(C)S4)n2)cc1F` [Compound 299]: the IC50 under setting [9] is less than 10 µM and the IC50 under setting [10] was less than 10 µM. On to `Oc1cccc(Nc2nc(Nc3cccc(-c4ncon4)c3)ncc2F)c1` [Compound 522], for which the IC50 under setting [5] was less than 10 µM. For `CCCCn1ncc2cc(Nc3ncc(F)c(Nc4ccc(F)c(OC)c4)n3)ccc21` [Compound 713, N2-(1-n-Butylindazol-5-yl)-5-fluoro-N4-(4-fluoro-3-methoxyphenyl)-2,4-pyrimidinediamine], the IC50 under setting [4] was less than 10 µM and the IC50 under setting [11] was less than 10 µM. Regarding `Cc1n[nH]c2cc(Nc3ncc(F)c(Nc4ccc5c(c4)NC(=O)C(C)(C)O5)n3)ccc12` [Compound 751, N4-(2,2-Dimethyl-3-oxo-4H-benz[1,4]oxazin-6-yl)-5-fluoro-N2-(3-methylindazol-6-yl)-2,4-pyrimidinediamine], the IC50 runs as follows: under setting [4], less than 10 µM; under setting [11], less than 10 µM. Take `CNC(=O)Cn1ccc2cc(Nc3ncc(F)c(Nc4ccc(C(=O)NC)c(Cl)c4)n3)ccc21` [Compound 656, N4-[3-Chloro-4-(N-methylamino)carbonylphenyl]-5-fluoro-N2-[1-(N-methylamino)carbonylmethyleneindol-5-yl]-2,4-pyrimidinediamine]: the IC50 (low cell density CHMC, tryptase release, 8 point, read-out: LD Tryptase, CHMC, IgE, 8 pt) is less than 10 µM. In the case of `COc1cc(Nc2ncc(F)c(Nc3ccc4c(c3)NC(=O)C(C)(C)S4)n2)cc(OC)c1` [Compound 290], the IC50 under setting [1] is less than 10 µM.

For `COc1ccc(Nc2nc(Nc3ccc4c(c3)nc(C)n4CCO)ncc2F)cc1Cl` [Compound 900], the IC50 under setting [5] was less than 10 µM.

Take `COc1ccc(Nc2nc(Nc3ccc4[nH]c(N5CCOCC5)nc4c3)ncc2F)cc1Cl` [Compound 978, N4-(3-Chloro-4-methoxyphenyl)-5-fluoro-N2-[2-(4-morpholino)-1H-benzimidazol-5-yl]-2,4-pyrimidinediamine]: under setting [12], the IC50 was less than 10 µM. Still for that read-out and setting: the same measure for `COc1c(C)cc(Nc2ncc(F)c(Nc3ccc4c(c3)NCC(C)(C)O4)n2)cc1Cl` [Compound 1001, N2-(3-Chloro-4-methoxy-5-methylphenyl)-N4-(3,4-dihydro-2,2-dimethyl-4H-benz[1,4]oxazin-6-yl)-5-fluoro-2,4-pyrimidinediamine]: less than 10 µM. Take `Cc1nc2cc(Nc3ncc(F)c(Nc4ccc5c(c4)NC(=O)[C@H](C)O5)n3)ccc2n1CCO` [Compound 902]: the IC50 under setting [6] is less than 10 µM. Turning to `CNC(=O)COc1cccc(Nc2ncc(F)c(Nc3ccc4c(c3)NC(=O)C(C)(C)S4)n2)c1` [Compound 294, N4-(2,2-Dimethyl-3-oxo-4H-benzo[1,4]thiazin-6-yl)-5-fluoro-N2-[3-(N-methylamino)carbonylmethyleneoxyphenyl]-2,4-pyrimidinediamine], the IC50 by setting is: under setting [9], less than 10 µM; under setting [10], less than 10 µM.

In the case of `NC(=O)c1ccc(Nc2nc(Cl)ncc2F)cc1` [Compound 1327], the IC50 under setting [11] was more than 10 µM. `CNC(=O)CNC(=O)c1ccc(Nc2ncc(F)c(Nc3ccc(OC)c(Cl)c3)n2)cc1` [Compound 1325]: the IC50 under setting [3] is less than 10 µM.

For `COc1ccc(Nc2nc(Nc3ccc4c(cnn4C)c3)ncc2F)nc1Cl` [Compound 886], the IC50 under setting [5] is more than 10 µM. Consider `COc1cc(Nc2nc(Nc3cc(C)cc(C(F)(F)F)c3)ncc2F)cc(C(F)(F)F)c1` [Compound 334], for which the IC50 under setting [7] is less than 10 µM.

As for `CC(C)(C)c1nnc(-c2cccc(Nc3ncc(F)c(Nc4cccc(O)c4)n3)c2)o1` [Compound 532, N2-[ (2-tert-Butyl-1,3,4-oxadiazol-5-yl)phenyl]-5-fluoro-N4-(3-hydroxyphenyl)-2,4-pyrimidinediamine], the IC50 (low cell density, 3 pt, read-out: LD Tryptase, CHMC, IgE, 3 pt) is less than 10 µM.

On to `CCOC(=O)N1CCC(Nc2nc(Nc3ccc(N4CCN(CC)CC4)nc3)ncc2F)CC1` [Compound 1238], for which the IC50 under setting [4] is more than 10 µM. On to `COc1cc(Nc2nc(Nc3cc(C)c(O)c(Cl)c3)ncc2F)cc(C(F)(F)F)c1` [Compound 336, N2-(3-Chloro-4-hydroxy-5-methylphenyl)-5-fluoro-N4-(3-methoxy-5-trifluoromethylphenyl)-2,4-pyrimidinediamine], for which the IC50 under setting [7] is less than 10 µM. `CNC(=O)COc1cccc(Nc2ncc(F)c(Nc3ccc4c(c3)NC(=O)C(C)(C)O4)n2)c1C` [Compound 1067, N4-(2,2-Dimethyl-3-oxo-4H-benz[1,4]oxazin-6-yl)-5-fluoro-N2-[2-methyl-3-(N-methylamino)carbonylmethyleneoxyphenyl]-2,4-pyrimidinediamine]: the IC50 under setting [8] was less than 10 µM. `CCCn1cc2cc(Nc3ncc(F)c(Nc4ccc(Cl)c(Cl)c4)n3)ccc2n1` [Compound 762, N4-(3,4-Dichlorophenyl)-5-fluoro-N2-(2-n-propylindazol-5-yl)-2,4-pyrimidinediamine]: the IC50 is less than 10 µM under setting [4] and less than 10 µM under setting [11].
